Broadly, the Kd is the equilibrium constant for the complex coming apart. A higher Kd goes with a looser complex.

Sequence of FABP4 (P15090 whole entry): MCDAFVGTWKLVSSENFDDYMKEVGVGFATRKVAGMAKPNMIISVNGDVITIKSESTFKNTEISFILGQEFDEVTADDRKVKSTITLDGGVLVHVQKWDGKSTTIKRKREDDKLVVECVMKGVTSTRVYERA

The first experiment concerns the target FABP4 (Homo sapiens, UniProt P15090). Description: TdF-based ligand binding affinity (FABP inhibitory activity assay). The settings on record: TdF-based ligand binding affinity constant. From the text:
Theoretical basis for TdF-based ligand binding affinity constant
The derivation of TdF-based ligand binding affinity constant (Kd) followed closely those previously formulated by Brandts and Lin, Biochemistry 29 (1990) 6927-6940. In brief, the binding constant of the ligand at the Tm is expressed as below: […]
where T0 is the midpoint of unfolding for unliganded protein and Tm is the midpoint of unfolding in presence of ligand. [LTm] is free ligand at Tm. The ΔHu and ΔCpu are the enthalpy of unfolding and heat capacity change of unfolding for the protein respectively. The ΔCPu is proportional to the size of protein and is an approximate quantity in the above equation (empirically, ΔCpu=(MW of protein/115)*14 cal/mol*K). Following algorithm derived by Mayhood et al, (Analytical Biochemistry 345 (2005) 187-197), the T0 and ΔHu can be determined separately from nonlinear regression fitting the temperature dependent protein alone curve to the following equation: […]
The nonlinear regression fitting in general readily reaches convergence by properly constraining the initial values for the fitting parameters (e.g. the initial “guess” for the ΔHu was constrained to 120 kcal/mol; initial Yn and mr, were set to 1 and zero to best represent the melting curve along the low temperature region; negative slope of −0.5 was initially chosen for mu; initial Tm was also constrained to 50° C.).
(see Brandts et al and Mayhood et al, shown above) where ΔHL (T) is the van't Hoff enthalpy of ligand binding at temperature T and ΔCpL is the heat capacity upon ligand binding. For simplicity, the ΔCpL and ΔHL (T) were set to zero and −7 kcal/mol respectively. (The ΔCpL accounts for minimal portion of total protein-ligand binding energetics and is therefore set to zero (For example, see Hossein Naghibi et al, Proc. Natl. Acad. Sci. 92, 5597-5599 (1995), where ΔCpL was estimated to ˜2% of ΔHL at 25° C. obtained from calorimetric study of binding RNase A and 2′-CMP)).
Molecule `O=C(c1nc2ccccc2nc1O)N1CCCCC1Cc1cccc(F)c1` (racemic) [Compound 1-74, (+/−)-[2-(3-Fluorobenzyl)piperidin-1-yl](3-hydroxyquinoxalin-2-yl)methanone] registered a Kd of 4.4 µM.

Turning to `O=C(c1nc2ccccc2nc1O)N1CCCCC1Cc1cccc(C(F)(F)F)c1` (racemic) [Compound 1-75, (+/−)-(3-Hydroxyquinoxalin-2-yl) {2-[3-(trifluoromethyl)benzyl]piperidin-1-yl}methanone], the Kd was 0.98 µM.

Regarding `O=C(c1nc2ccccc2nc1O)N1CCCCC1Cc1ccc(F)cc1` (racemic) [Compound 1-79, (+/−)-[2-(4-Fluorobenzyl)piperidin-1-yl](3-hydroxyquinoxalin-2-yl)methanone], the Kd is 4.7 µM.

Take `COc1ccc(CC2CCCCN2C(=O)c2nc3ccccc3nc2O)cc1` (racemic) [Compound 1-80, (+/−)-(3-Hydroxyquinoxalin-2-yl)[2-(4-methoxybenzyl)piperidin-1-yl]methanone]: the Kd is 4.76 µM.

In the case of `O=C(c1nc2ccccc2nc1O)N1CCCC(Cc2ccccc2)C1` (racemic) [Compound 1-83, (+/−)-(3-Benzylpiperidin-1-yl)(3-hydroxyquinoxalin-2-yl)methanone], binding was characterised by a dissociation constant (Kd) of 16.2 µM.

For the molecule `COc1cccc(CC2CCCN(C(=O)c3nc4ccccc4nc3O)C2)c1` (racemic) [Compound 1-85, (+/−)-(3-Hydroxyquinoxalin-2-yl)[3-(3-methoxybenzyl)piperidin-1-yl]methanone], the Kd turned out to be 11 µM.

Regarding `O=C(c1nc2ccccc2nc1O)N1CCCC(Cc2cccc(F)c2)C1` (racemic) [Compound 1-86, (+/−)-[3-(3-Fluorobenzyl)piperidin-1-yl](3-hydroxyquinoxalin-2-yl)methanone], the Kd worked out at 8.6 µM.

The molecule `O=C(c1nc2ccccc2nc1O)N1CCCC(Cc2ccc(F)cc2)C1` (racemic) [Compound 1-88, (+/−)-[3-(4-Fluorobenzyl)piperidin-1-yl](3-hydroxyquinoxalin-2-yl)methanone] registered a Kd of 5.5 µM.

`Cc1cccc(CC2CCCCCN2C(=O)c2nc3ccccc3nc2O)c1` (racemic) [Compound 1-91, (+/−)-(3-Hydroxyquinoxalin-2-yl)[2-(3-methylbenzyl)azepan-1-yl]methanone] came in with a Kd of 1.84 µM.

In turn, `O=C(c1nc2ccccc2nc1O)N1CCCCCC1Cc1ccc(Cl)cc1` (racemic) [Compound 1-93, (+/−)-[2-(4-Chlorobenzyl)azepan-1-yl](3-hydroxyquinoxalin-2-yl)methanone] showed a Kd of 9 µM.

On to `O=C(c1nc2cc(F)cc(F)c2nc1O)N1CCC[C@H]1Cc1cc(Cl)cc(Cl)c1` [9-16, (S)-(2-(3,5-dichlorobenzyl)pyrrolidin-1-yl)(5,7-difluoro-3-hydroxyquinoxalin-2-yl)methanone], for which the equilibrium dissociation constant (Kd) is 0.007 µM.

Consider `O=C(c1nc2c(F)cc(F)cc2nc1O)N1CCC[C@H]1Cc1cc(Cl)cc(Cl)c1` [9-18, (S)-(2-(3,5-dichlorobenzyl)pyrrolidin-1-yl)(6,8-difluoro-3-hydroxyquinoxalin-2-yl)methanone], for which binding was put at a Kd of 0.05 µM.

`O=C(c1nc2ccccc2nc1O)N1CCC[C@H]1CNc1ccccc1` [Compound 1-65, (S)-(3-Hydroxyquinoxalin-2-yl){2-[(phenylamino)methyl]pyrrolidin-1-yl}methanone] came in with a Kd of 22.7 µM.

In turn, `CN(Cc1ccccc1)C(=O)c1nc2ccccc2nc1O` [Compound 1-98] yielded a Kd of 28.4 µM.

`O=C(c1nc2ccccc2nc1O)N1CCCC1Cc1cccc(Cl)c1` (centres unmarked) [Compound 1-99] gave a dissociation constant (Kd) of 0.95 µM.

`O=C(c1nc2ccccc2nc1O)N1CCCC1Cc1ccccc1Cl` (centres unmarked) [Compound 1-115] returned a Kd of 1.8 µM.

For `O=C(c1nc2ccccc2nc1O)N1CCCC1Cc1ccccc1` (centres unmarked) [Compound 1-116], binding was characterised by a dissociation constant (Kd) of 4.6 µM.

`Cc1ccc(CC2CCCN2C(=O)c2nc3ccccc3nc2O)cc1` (centres unmarked) [Compound 1-117] yielded a Kd of 9.8 µM.

As to `Cc1ccc(C(C)C)cc1N(C)C(=O)c1nc2ccccc2nc1O` [Compound 1-124], the Kd is 11.3 µM.

`CCCN(CC1CC1)C(=O)c1nc2ccccc2nc1O` [Compound 1-137]: the affinity, expressed as Kd, was 31 µM.

With `CN(CCc1ccccc1)C(=O)c1nc2ccccc2nc1O` [Compound 1-139], binding was characterised by a dissociation constant (Kd) of 12.7 µM.

Molecule `CC(C)CN(C)C(=O)c1nc2ccccc2nc1O` [Compound 1-140] registered a Kd of 23.2 µM.

On to `COc1ccc(CCN(C)C(=O)c2nc3ccccc3nc2O)cc1OC` [Compound 1-141], for which the Kd amounted to 26.1 µM.

`CN(Cc1cccc(Cl)c1)C(=O)c1nc2ccccc2nc1O` [Compound 1-143] had a dissociation constant (Kd) of 23.1 µM.

The molecule `O=C(c1nc2ccccc2nc1O)N1CCCC1Cc1ccccc1F` (centres unmarked) [Compound 1-153] returned a Kd of 2.9 µM.

Regarding `CN(CCc1cccc(Cl)c1)C(=O)c1nc2ccccc2nc1O` [Compound 1-156], the Kd was 2.7 µM.

Regarding `O=C(c1nc2ccccc2nc1O)N1CCCC1Cc1ccc(F)cc1` (centres unmarked) [Compound 1-158], binding was put at a Kd of 2 µM.

In turn, `O=C(c1nc2cccc(Cl)c2nc1O)N1CCCC1Cc1cccc(F)c1` (centres unmarked) [Compound 1-161] came in with a Kd of 0.022 µM.

The molecule `O=C(c1nc2cccc(Cl)c2nc1O)N1CCCC1Cc1ccc(Cl)c(Cl)c1` (centres unmarked) [Compound 1-162] displayed a Kd of 0.004 µM.

Molecule `O=C(c1nc2ccc(C(F)(F)F)cc2nc1O)N1CCCC1Cc1cccc(F)c1` (centres unmarked) [Compound 1-163] displayed a Kd of 0.002 µM.

On to `O=C(c1nc2ccc(C(F)(F)F)cc2nc1O)N1CCCC1Cc1ccc(Cl)c(Cl)c1` (centres unmarked) [Compound 1-164], for which the Kd was determined as 0.548 µM.

Molecule `O=C(c1nc2cc(Cl)c(Cl)cc2nc1O)N1CCCC1CC1CCCCC1` (centres unmarked) [Compound 1-165] returned a Kd of 0.244 µM.

`Nc1nc2ccccc2nc1C(=O)N1CCCC1Cc1cccc(Cl)c1` (centres unmarked) [Compound 5-2, (3-aminoquinoxalin-2-yl)[2-(3-chlorobenzyl)pyrrolidin-1-yl]methanone] showed a Kd of 10 µM.

In turn, `O=C(c1nc2ccccc2nc1O)N1CCCC[C@@H]1Cc1cccc(Cl)c1` [Compound 7-7, (R)-(2-(3-chlorobenzyl)piperidin-1-yl)(3-hydroxyquinoxalin-2-yl)methanone] came in with a dissociation constant Kd of 8.1 µM.

`O=C(c1nc2ccccc2nc1O)N1CCCC[C@H]1Cc1cccc(Cl)c1` [Compound 7-8, (S)-(2-(3-chlorobenzyl)piperidin-1-yl)(3-hydroxyquinoxalin-2-yl)methanone] had a Kd of 1.2 µM.

Regarding `O=C(c1nc2ccccc2nc1O)N1CCC[C@H]1Cc1cc(Cl)cc(Cl)c1` [Compound 8-6, (S)-(2-(3,5-dichlorobenzyl)pyrrolidin-1-yl)(3-hydroxyquinoxalin-2-yl)methanone], the dissociation constant Kd was 0.25 µM.

Take `O=C(c1nc2ccccc2nc1O)N1CCC[C@H]1Cc1cccc(Cl)c1` [Compound 8-8, (S)-(2-(3-chlorobenzyl)pyrrolidin-1-yl)(3-hydroxyquinoxalin-2-yl)methanone]: the affinity, expressed as Kd, was 0.3 µM.

For the molecule `O=C(c1nc2ccccc2nc1O)N1CCC[C@@H]1Cc1cccc(Cl)c1` [Compound 8-9, (R)-(2-(3-chlorobenzyl)pyrrolidin-1-yl)(3-hydroxyquinoxalin-2-yl)methanone], binding was characterised by a dissociation constant (Kd) of 5 µM.

`O=C(c1nc2cc(Cl)c(Cl)cc2nc1O)N1CCC[C@H]1Cc1cc(Cl)cc(Cl)c1` [Compound 8-11]: the Kd amounted to 0.004 µM.

Turning to `O=C(c1nc2cc(F)c(F)cc2nc1O)N1CCC[C@H]1Cc1cc(Cl)cc(Cl)c1` [Compound 8-12], the Kd came out at 0.0013 µM.

The next experiment deals with FABP5 (Homo sapiens, UniProt Q01469). Description: FABP5 TdCD binding affinity.
Sequence of FABP5 (Q01469 whole entry): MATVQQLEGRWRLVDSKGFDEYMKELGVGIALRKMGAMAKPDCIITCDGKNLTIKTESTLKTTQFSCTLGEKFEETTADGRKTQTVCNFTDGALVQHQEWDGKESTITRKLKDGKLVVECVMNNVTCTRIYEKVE
Settings: not given
`O=C(c1nc2ccccc2nc1O)N1CCC[C@H]1Cc1cccc(Cl)c1` [Compound 8-8, (S)-(2-(3-chlorobenzyl)pyrrolidin-1-yl)(3-hydroxyquinoxalin-2-yl)methanone]: the equilibrium dissociation constant (Kd) amounted to 0.5 µM.
